Experimental data as given in US20250127937A1, “FAP INHIBITOR” (UNIVERSITÄT HEIDELBERG, priority 2018, published 2025).
Like-named read-outs stand apart in the source and are kept apart here. Values belong to the molecule of their own block, whether it stands above or below them.

Assays:
human FAP-α = human FAP-α (Homo sapiens (Human), UniProt Q12884); test: Competitive binding of radiolabeled compound to HT-1080-FAP cells against unlabeled compound; conditions: for IC50: read-out: IC50; for IC50-values: Cu-64 labeled
Method: Competition experiments were performed by simultaneous exposure to unlabeled (10^−5 M to 10^−9M) and radiolabeled compound for 60 min. […] For internalization experiments, surface bound activity was removed by incubating the cells with 1 M glycine-HCl buffer for 10 min. The radioactivity was measured using a γ-counter, normalized to 1 mio cells and calculated as percentage of applied dose (% ID).
The medium was replaced by 1 mL fresh medium without fetal calf serum. […] Competition experiments were performed by simultaneous exposure to unlabeled (10^−5 M to 10^−9 M) and radiolabeled compound for 60 min. […] In all experiments, the cells were washed with 1 mL phosphate-buffered saline pH 7.4 for 2 times and subsequently lysed with 1.4 ml lysis buffer (0.3 M NaOH, 0.2% SDS). Radioactivity was determined in a γ-counter (Cobra II, Packard), normalized to 1 mio cells and calculated as percentage of the applied dose (% ID). Each experiment was performed 3 times, and 3 repetitions per independent experiment were acquired.

[1] = system: HT-1080-FAP tumor xenografts; test: Organ distribution ex vivo in HT-1080-FAP tumor bearing nude mice; design: species or system mouse; conditions: for Tumor uptake 1 h / Tumor uptake 4 h / Tumor uptake 24 h: HT-1080-FAP tumor bearing nude mice, mean ± SD, n = 3
Method: (§1) For in vivo experiments, 8 week old BALB/c nu/nu mice (Charles River) were subcutaneously inoculated into the right trunk with 5×10^6 with HT-1080-FAP, Capan-2 or SK-LMS-1 cells, respectively. When the size of the tumor reached approximately 1 cm^3, the radiolabeled compound was injected via the tail vein (˜10 MBq for small-animal PET imaging; ˜1 MBq for organ distribution). PET imaging was performed up to 140 min after intravenous injection of 1 MBq of Ga-68 labeled compound per mouse using the Inveon PET small-animal PET scanner (Siemens). Images were reconstructed iteratively using the 3D-OSEM+MAP method and were converted to standardized uptake value (SUV) images. Quantification was done using a ROI technique and expressed as SUV mean. For organ distribution of Lu-177 labeled compound (approx. […] per mouse), the animals (n=3 for each time point) were sacrificed after indicated time points (from 30 min to 24 h). The distributed radioactivity was measured in all dissected organs and in blood using a γ-counter (Cobra Autogamma, Packard). The values are expressed as percentage of injected dose per gram of tissue (% ID/g).

[2] = Blood pool clearance from SUVmean of the heart; format: in vivo; conditions: for Plateau value (SUVmean): hypothetical plateau, two phase exponential decay of heart SUVmean; for Blood pool-clearence (T1/2 [min]): rate determining half-life, two phase exponential decay of heart SUVmean 0.375-60 min
Description: The calculated plateau values, which were higher for Ga-68 labeled FAPI-13, -21, -36 and AlF-18 labeled FAPI-74 theoretically correspond to a higher fraction of compound which is not cleared due to unspecific binding or by remaining in circulating (Table 12).

[3] = system: HT-1080-FAP tumor xenografts; test: Small-animal imaging (PET, scintigraphy) in HT-1080-FAP tumor bearing mice; format: in vivo, mouse; conditions: for tumor uptake in vivo: Tc-99m labeled, scintigraphy
Method: as §1, with “PET imaging was performed up to 140 min after intravenous injection of 1 MBq of Ga-68 labeled compound per mouse using the Inveon PET small-animal PET scanner (Siemens).” left out

HT-1080-FAP cells = test: Efflux experiments in HT-1080-FAP cells; format: cell-based, human; conditions: Cu-64 labeled
Method: Radioligand binding studies were performed using HT-1080-FAP cells. The radiolabeled compound was added to the cell culture and incubated for different time intervals ranging from 10 min to 24 h. Competition experiments were performed by simultaneous exposure to unlabeled (10^−5 M to 10^−9M) and radiolabeled compound for 60 min. For efflux experiments, radioactive medium was removed after incubation for 60 min and replaced by non-radioactive medium for time intervals ranging from 1 to 24 h. For internalization experiments, surface bound activity was removed by incubating the cells with 1 M glycine-HCl buffer for 10 min. The radioactivity was measured using a γ-counter, normalized to 1 mio cells and calculated as percentage of applied dose (% ID).
For radioligand binding studies, cells were seeded in 6-well plates and cultivated for 48 h to a final confluence of approx. 80-90% (1.2-2 mio cells/well). The medium was replaced by 1 mL fresh medium without fetal calf serum. The radiolabeled compound was added to the cell culture and incubated for different time intervals ranging from 10 min to 24 h. Competition experiments were performed by simultaneous exposure to unlabeled (10^−5 M to 10^−9 M) and radiolabeled compound for 60 min. For efflux experiments, radioactive medium was removed after incubation for 60 min and replaced by non-radioactive medium for time intervals ranging from 1 to 24 h. In all experiments, the cells were washed with 1 mL phosphate-buffered saline pH 7.4 for 2 times and subsequently lysed with 1.4 ml lysis buffer (0.3 M NaOH, 0.2% SDS). Radioactivity was determined in a γ-counter (Cobra II, Packard), normalized to 1 mio cells and calculated as percentage of the applied dose (% ID). Each experiment was performed 3 times, and 3 repetitions per independent experiment were acquired.

[4] = Lu-177-labeled compound, unlabeled compound as competitor, HT-1080-FAP cells

Chain of human FAP-α (Q12884 whole entry): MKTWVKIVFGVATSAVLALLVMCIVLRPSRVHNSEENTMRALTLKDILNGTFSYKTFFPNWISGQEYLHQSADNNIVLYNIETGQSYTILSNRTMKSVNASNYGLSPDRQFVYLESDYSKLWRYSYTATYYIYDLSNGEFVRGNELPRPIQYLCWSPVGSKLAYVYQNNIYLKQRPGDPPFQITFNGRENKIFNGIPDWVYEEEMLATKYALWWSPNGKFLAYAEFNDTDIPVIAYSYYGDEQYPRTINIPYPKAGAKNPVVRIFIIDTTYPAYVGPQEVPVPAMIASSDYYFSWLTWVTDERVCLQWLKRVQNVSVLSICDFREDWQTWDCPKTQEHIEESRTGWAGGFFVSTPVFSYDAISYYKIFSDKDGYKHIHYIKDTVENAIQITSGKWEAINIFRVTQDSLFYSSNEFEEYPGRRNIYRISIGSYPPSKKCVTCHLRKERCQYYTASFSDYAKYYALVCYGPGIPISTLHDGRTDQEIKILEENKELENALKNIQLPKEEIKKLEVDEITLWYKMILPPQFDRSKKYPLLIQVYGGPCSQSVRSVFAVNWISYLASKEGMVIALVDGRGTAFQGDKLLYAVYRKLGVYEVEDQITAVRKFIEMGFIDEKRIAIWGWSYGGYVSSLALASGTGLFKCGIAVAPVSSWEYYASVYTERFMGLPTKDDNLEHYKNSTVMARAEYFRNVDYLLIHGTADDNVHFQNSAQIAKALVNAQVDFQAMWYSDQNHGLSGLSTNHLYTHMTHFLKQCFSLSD

Compound: N#C[C@@H]1CC(F)(F)CN1C(=O)CNC(=O)c1ccnc2ccc(OCCCC3CCN(C(=O)CN4CCN(CC(=O)O)CCN(CC(=O)O)CCN(CC(=O)O)CC4)CC3)cc12 [FAPI-13]
IC50 (human FAP-α; [4]): 4.5 nM | Tumor uptake 1 h [1]: 6.3 ± 0.57 % ID/g | Tumor uptake 4 h [1]: 8.7 ± 0.77 % ID/g | Tumor uptake 24 h [1]: 4.8 ± 1.71 % ID/g | Plateau value (SUVmean) [2]: 0.27 | Blood pool-clearence (T1/2 [min]) [2]: 5.5 min

Compound: N#C[C@@H]1CC(F)(F)CN1C(=O)CNC(=O)c1ccnc2ccc(OCCOCCOCCN3CCN(C(=O)CN4CCN(CC(=O)O)CCN(CC(=O)O)CCN(CC(=O)O)CC4)CC3)cc12 [FAPI-15]
IC50 (human FAP-α; [4]): 9.1 nM | Tumor uptake 1 h [1]: 3.4 ± 1.13 % ID/g | Tumor uptake 4 h [1]: 4.6 ± 0.32 % ID/g | Tumor uptake 24 h [1]: 1.1 ± 0.25 % ID/g

Compound: N#C[C@@H]1CC(F)(F)CN1C(=O)CNC(=O)c1ccnc2ccc(OCCCN3CCN(C(=O)CN(Cc4nccn4CC(=O)O)Cc4nccn4CC(=O)O)CC3)cc12 [FAPI-19]
IC50 (human FAP-α; Tc-99m labeled, HT-1080-FAP cells): 6.4 nM | tumor uptake in vivo [3]: insufficient tumor uptake

Compound: N#C[C@@H]1CC(F)(F)CN1C(=O)CNC(=O)c1ccnc2ccc(OCCCN3C[C@@H]4C[C@H]3CN4C(=O)CN3CCN(CC(=O)O)CCN(CC(=O)O)CCN(CC(=O)O)CC3)cc12 [FAPI-20]
IC50 (human FAP-α; [4]): 7.2 nM

Compound: N#C[C@@H]1CC(F)(F)CN1C(=O)CNC(=O)c1ccnc2ccc(OCCCN3CCN(C(=O)CN(Cc4nccn4CC(=O)N[C@@H](CC(C(=O)O)C(=O)O)C(=O)O)Cc4nccn4CC(=O)N[C@@H](CC(C(=O)O)C(=O)O)C(=O)O)CC3)cc12 [FAPI-34]
tumor uptake in vivo [3]: continuously enriched within the tumor

Compound: N#C[C@@H]1CC(F)(F)CN1C(=O)CNC(=O)c1ccnc2ccc(OCCCN3CCN(C(=O)CN4CCN(CC(=O)O)CCN(CC(=O)O)CC4)CC3)cc12 [FAPI-42]
IC50-values (human FAP-α; HT-1080-FAP cells): lower nanomolar range | calculated in vitro-half-life (efflux) (HT-1080-FAP cells): 720 min

Compound: N#C[C@@H]1CC(F)(F)CN1C(=O)CNC(=O)c1ccnc2ccc(OCCCN3CCN(CCN4CCN(CC(=O)O)CCN(CC(=O)O)CCN(CC(=O)O)CC4)CC3)cc12 [FAPI-47]
IC50 (human FAP-α; [4]): 42 nM

Compound: N#C[C@@H]1CC(F)(F)CN1C(=O)CNC(=O)c1ccnc2ccc(OCCCN3CCN(CCCN4CCN(CC(=O)O)CCN(CC(=O)O)CCN(CC(=O)O)CC4)CC3)cc12 [FAPI-48]
IC50 (human FAP-α; [4]): 26.3 nM

Compound: CN(CCCN1CCN(C(=O)CN2CCN(CC(=O)O)CCN(CC(=O)O)CC2)CC1)c1ccc2nccc(C(=O)NCC(=O)N3CC(F)(F)C[C@H]3C#N)c2c1 [FAPI-52]
IC50-values (human FAP-α; HT-1080-FAP cells): lower nanomolar range

Compound: N#C[C@@H]1CCCN1C(=O)CNC(=O)c1ccnc2ccc(OCCCN3CCN(C(=O)CN4CCN(CC(=O)O)CCN(CC(=O)O)CC4)CC3)cc12 [FAPI-74]
IC50 (human FAP-α; F-18-FAPI derivatives, table title says EC50, head says IC50): 9.2 nM | Plateau value (SUVmean) [2]: 0.32 | Blood pool-clearence (T1/2 [min]) [2]: 2.4 min | PET imaging findings ([3]; F-18 labeled (nicotinamide or AlF-18 NOTA), up to 140 min after i.v.): high target specificity and fast clearance

Further lines, with some results ahead:

IC50 (human FAP-α; [4]): 17.2 nM | Tumor uptake 1 h [1]: 6.0 ± 0.90 % ID/g | Tumor uptake 4 h [1]: 5.8 ± 0.60 % ID/g | Tumor uptake 24 h [1]: 2.8 ± 0.40 % ID/g
Compound: N#C[C@@H]1CC(F)(F)CN1C(=O)CNC(=O)c1ccnc2ccc(OCCCCN3CCN(C(=O)CN4CCN(CC(=O)O)CCN(CC(=O)O)CCN(CC(=O)O)CC4)CC3)cc12 [FAPI-05]

IC50 (human FAP-α; [4]): 11.3 nM
Compound: N#C[C@@H]1CC(F)(F)CN1C(=O)CNC(=O)c1ccnc2ccc(CCCCN3CCN(C(=O)CN4CCN(CC(=O)O)CCN(CC(=O)O)CCN(CC(=O)O)CC4)CC3)cc12 [FAPI-39]

IC50 (human FAP-α; [4]): 12.7 nM
Compound: N#C[C@@H]1CC(F)(F)CN1C(=O)CNC(=O)c1ccnc2ccc(SCCCN3CCN(C(=O)CN4CCN(CC(=O)O)CCN(CC(=O)O)CCN(CC(=O)O)CC4)CC3)cc12 [FAPI-40]

IC50 (human FAP-α; [4]): 8.3 nM
Compound: N#C[C@@H]1CC(F)(F)CN1C(=O)CNC(=O)c1ccnc2ccc(NCCCN3CCN(C(=O)CN4CCN(CC(=O)O)CCN(CC(=O)O)CCN(CC(=O)O)CC4)CC3)cc12 [FAPI-41]

IC50 (human FAP-α; [4]): 13.5 nM | tumor-blood-ratios ([1]; Lu labeled, 1, 4 and 24 h, compared with FAPI-04): significantly higher ratios than FAPI-04 | Plateau value (SUVmean) [2]: 0.19
Compound: CN(CCCN1CCN(C(=O)CN2CCN(CC(=O)O)CCN(CC(=O)O)CCN(CC(=O)O)CC2)CC1)c1ccc2nccc(C(=O)NCC(=O)N3CC(F)(F)C[C@H]3C#N)c2c1 [FAPI-46]
Blood pool-clearence (T1/2 [min]) [2]: 5.3 min
